The nature of the test: Compound was evaluated for K+ ion binding affinity to macrocycle of macrotetrolides.
For the compound `CC[C@H]1C[C@@H]2CC[C@@H](O2)[C@@H](C)C(=O)O[C@H](C)C[C@H]2CC[C@H](O2)[C@H](C)C(=O)O[C@@H](C)C[C@@H]2CC[C@@H](O2)[C@@H](C)C(=O)O[C@H](C)C[C@H]2CC[C@H](O2)[C@H](C)C(=O)O1`, the Log K was found to be 4.4.
Next, `C[C@@H]1C[C@H]2CC[C@H](O2)[C@H](C)C(=O)O[C@@H](C)C[C@@H]2CC[C@@H](O2)[C@@H](C)C(=O)O[C@H](C)C[C@H]2CC[C@@H](O2)[C@H](C)C(=O)O[C@@H](C)C[C@@H]2CC[C@@H](O2)[C@@H](C)C(=O)O1`: 3.88.
With `CC[C@H]1C[C@@H]2CC[C@@H](O2)[C@@H](C)C(=O)O[C@H](C)C[C@H]2CC[C@H](O2)[C@H](C)C(=O)O[C@@H](CC)C[C@@H]2CC[C@@H](O2)[C@@H](C)C(=O)O[C@H](C)C[C@H]2CC[C@H](O2)[C@H](C)C(=O)O1` the figure was 4.73.

The record behind these values is ChEMBL document CHEMBL1131346, “A free energy calculation can be used to predict K(+)-binding constants for new macrotetrolide antibiotics” (Bioorg Med Chem Lett, 1998).
